The values that follow come from patent US20120321584A1, “PROCESSES FOR PREPARING AMINE SALTS OF KMUP-3 AND USE THEREOF” (KAOHSIUNG MEDICAL UNIVERSITY, priority 2011, published 2012).

The test system of one assay is PKA. The experiment in a line: PKA expression in electrically-stimulated left atria, Western blotting. Format: cell-based, guinea-pig. As to the method:
(§1) Protein extraction and Western blotting analysis. Briefly, after incubation with test agents in an organ bath, isolated beating atrium was frozen and pulverized to a fine powder at the temperature of liquid nitrogen. Atrium powders were then homogenized in protein extraction reagent (Pierce Biotechnology, Inc., Rockford, Ill.) by sonication. The samples were sonicated 10 sec three times and centrifuged at 13,000 rpm at 4° C. for 30 min. The protein concentrations of supernatants were determined by using bovine serum albumin as the standard. The cell extracts were then boiled in a ratio of 4:1 with sample buffer (Tris 100 mM, pH 6.8; glycerol 20%, Sodium dodecyl sulfate (SDS) 4% and bromophenol blue 0.2%). Electrophoresis was performed using 10% SDS-PAGE and transferred to nitrocellulose membranes (Millipore Corp., Billerica, Mass.). The membrane was blocked with Tris-buffered saline (TBS; 20 mM Tris and 137 mM NaCl, pH 7.6) containing 0.1% Tween 20 (TTBS) and 5% nonfat milk at room temperature for 1 h, washed with TTBS, and then incubated overnight at 4° C. in the appropriate primary antibody for PKARI, RhoA, ROCKII, p-CIP-17, CPI-17 and PKG1α1β. The membranes were washed in TTBS before being incubated with horseradish peroxidase-conjugated antibody against mouse, goat, or rabbit IgG for 1 hr. Membranes were then washed in TTBS and developed with the enhanced chemiluminescence for the detection of the specific antigen. The intensity of the bands was measured by densitometry. eNOS or phosphorylated eNOS were extracted from cell culture of neonatal myocytes, PA ring and aortic ring (2-3 mm) of rats and measured by Western blotting analysis.
(§2) PK, ROCKII and CIP-17 expression and pretreatment of beating left atrium. To examine whether KMUP-3 or KMUP-3 amine salt affects the protein expression in beating atrium, PKA, ROCKII, PKG and phosphorylated CIP-17 was determined by Western blotting, respectively. […]
A general note: A western blot detects proteins with antibodies after separation by electrophoresis.

A further assay concerns CPI-17. The experiment in a line: CPI-17 phosphorylation in electrically stimulated beating left atria. Format: cell-based, guinea-pig. The procedure:
as §1, with “The membrane was blocked with Tris-buffered saline (TBS; 20 mM Tris and 137 mM NaCl, pH 7.6) containing 0.1% Tween 20 (TTBS) and 5% nonfat milk at room temperature for 1 h, washed with TTBS, and then incubated overnight at 4° C. in the appropriate primary antibody for PKARI, RhoA, ROCKII, p-CIP-17, CPI-17 and PKG1α1β. The membranes were washed in TTBS before being incubated with horseradish peroxidase-conjugated antibody against mouse, goat, or rabbit IgG for 1 hr. Membranes were then washed in TTBS and developed with the enhanced chemiluminescence for the detection of the specific antigen.” left out
as §2

In assay [1] the test system is phosphorylated eNOS (p-eNOS). Put plainly: Phosphorylated eNOS expression in neonatal myocytes, Western blotting. Format: cell-based, rat. Conditions: neonatal rat cardiomyocytes. The procedure:
eNOS/p-NOS and cAMP/cGMP in neonatal myocytes. To determine the role of the NO/cGMP-pathway in heart, neonatal rat myocyte protein was extracted followed by Western blotting to measure the expression of eNOS, phosphorylated eNOS (p-eNOS), cAMP, and cGMP (FIG. 14 A-14 B and FIG. 15 A-15 B). KMUP-3 increased eNOS and p-eNOS in neonatal rat cardiomyocytes and the effect was reduced by L-NAME (100 μM)-pretreatment (FIG. 14A and FIG. 14B). KMUP-3 increased both cAMP and cGMP.
Protein extraction and Western blotting analysis. Briefly, after incubation with test agents in an organ bath, isolated beating atrium was frozen and pulverized to a fine powder at the temperature of liquid nitrogen. Atrium powders were then homogenized in protein extraction reagent (Pierce Biotechnology, Inc., Rockford, Ill.) by sonication. The samples were sonicated 10 sec three times and centrifuged at 13,000 rpm at 4° C. for 30 min. The protein concentrations of supernatants were determined by using bovine serum albumin as the standard. […] The intensity of the bands was measured by densitometry. eNOS or phosphorylated eNOS were extracted from cell culture of neonatal myocytes, PA ring and aortic ring (2-3 mm) of rats and measured by Western blotting analysis.

In a further assay the test system is L-type Ca2+ channels. Put plainly: Ca2+ entry currents in H9c2 cells, whole cell patch-clamp. Format: cell-based, rat. To be noted: H9c2 cells, KMUP-3 1-100 μM. For orientation: Patch clamp records ionic current or voltage across a cell membrane.

From the text for L-type Ca2+ channels: To measure the ICa through L-type Ca^2+ channels, whole cell patch-clamp electrophysiology was used in rat heart-derived H9c2 cells as previously described. In brief, H9c2 cells were placed in a recording dish and perfused with a bath solution containing (in mM): 135 tetraethylammonium (TEA)-Cl, 1.8 CaCl2, 2 MgCl2, 10 glucose, and 10 HEPES (pH 7.4, Tris). […] Negative pressure was briefly applied to rupture the membrane and a gigaohm seal was obtained.
H9c2 cells were clamped at −80 mV with step depolarizations (300 ms) from −80 to 0 mV to evoke whole-cell ICa. Voltage clamped cells were equilibrated for 15 min prior to experimentation. Membrane currents were recorded on an Axopatch 700A amplifier (Axon Instruments, Union City, Calif.), filtered at 1 kHz using a low-pass Bessel filter, digitized at 5 kHz and stored on a computer for subsequent analysis with Clampfit 9.0. Following equilibration, ICa was monitored in the presence and absence of KMUP-3 or KMUP-3 amine salt (1, 10, 100 μM). To ascertain whether PKG or ROCK signaling was involved in the KMUP-3-induced decreases in ICa, H9c2 cells were incubated for 15 min with the combination of KMUP-3 or KMUP-3 amine salt (10 μM) and PKG antagonist KT5823 (3 μM) or ROCK inhibitor Y-27632 (50 μM). All electrical recordings were performed at room temperature.

Consider `Cn1c(=O)c2c(ncn2CCN2CCN(c3ccc([N+](=O)[O-])cc3)CC2)n(C)c1=O` [KMUP-3, 7-[2-[4-(4-nitrobenzene)piperazinyl]ethyl]-1,3-dimethylxanthine], for which the PKA expression result in the assay with PKA (FIG. 13B, concentration not given) is given as “significantly increased”; with PKA (KMUP-3 0.1-10 μM), “significantly increased”. Moreover, the “Phosphorylation of CPI-17” value in the assay on CPI-17 is reported as “concentration-dependently increased”. In assay [1], the p-eNOS expression result is “increased”. Further, in the assay with L-type Ca2+ channels, the “Inward currents (Ca2+ entry)” value is “concentration-dependently reduced”.
